# Experiments:
# hAChE = target: T1, hAChE (Homo sapiens, UniProt P22303); assay: biochemical; conditions: for IC50: mean ± SD of three independent measurements, each in triplicate; for inhibition at 100 µM: tested at 100 µM compound concentration, read-out: %Inhibition hAChE ± SD
# T1 construct: 8.3 μL of either blood cell lysate or plasma dilutions; from tissue; host or cells: blood cell lysate
# Method: (§1) The hAChE and hBuChE activities were determined using a modified method of Ellman, as described. Briefly, hAChE and hBuChE activities were determined using a modified method of Ellman, with acetylthiocholine iodide (ATChI) and butyrylthiocholine iodide (BuTChI) as substrates, respectively. Briefly, 8.3 μL of either blood cell lysate or plasma dilutions (at least six different concentrations), 283 μL of 5 mM 5,5′-dithiobis-2-nitrobenzoic acid (DTNB) and 8.3 μL of the sample dilution in dimethyl sulfoxide (DMSO) (40 mM, 10 mM, 4 mM, 1 mM, 0.4 mM, and 0 mM) were added to the semi-micro cuvette. The reaction was initiated by addition of 33.3 μL 10 mM substrate (ATChI or BuTChI). The final proportion of DTNB and substrate was […]. The increase of absorbance (ΔA) at 436 nm for AChE and 412 nm for BuChE was measured for 1 min at 37 °C using a spectrophotometer (Synergy^TM HT Multi-Detection Microplate Reader). Each measurement was repeated six times for every concentration of enzyme preparation.
# hBuChE = target: T2, hBuChE (Homo sapiens, UniProt P06276); assay: biochemical; type: biochemical; conditions: for IC50: mean ± SD of three independent measurements, each in triplicate; for inhibition at 100 µM: tested at 100 µM compound concentration, read-out: % inhibition hBuChE ± SD; for SI for hBuChE: ratio hAChE IC50/hBuChE IC50
# T2 construct: 8.3 μL of either blood cell lysate or plasma dilutions; from tissue; host or cells: plasma
# Method: as §1
# POP (EC 3.4.21.26) = target: T3, POP (EC 3.4.21.26) (Homo sapiens, UniProt P48147); assay: POP inhibition assay; type: biochemical
# T3 sequence (P48147 1-710): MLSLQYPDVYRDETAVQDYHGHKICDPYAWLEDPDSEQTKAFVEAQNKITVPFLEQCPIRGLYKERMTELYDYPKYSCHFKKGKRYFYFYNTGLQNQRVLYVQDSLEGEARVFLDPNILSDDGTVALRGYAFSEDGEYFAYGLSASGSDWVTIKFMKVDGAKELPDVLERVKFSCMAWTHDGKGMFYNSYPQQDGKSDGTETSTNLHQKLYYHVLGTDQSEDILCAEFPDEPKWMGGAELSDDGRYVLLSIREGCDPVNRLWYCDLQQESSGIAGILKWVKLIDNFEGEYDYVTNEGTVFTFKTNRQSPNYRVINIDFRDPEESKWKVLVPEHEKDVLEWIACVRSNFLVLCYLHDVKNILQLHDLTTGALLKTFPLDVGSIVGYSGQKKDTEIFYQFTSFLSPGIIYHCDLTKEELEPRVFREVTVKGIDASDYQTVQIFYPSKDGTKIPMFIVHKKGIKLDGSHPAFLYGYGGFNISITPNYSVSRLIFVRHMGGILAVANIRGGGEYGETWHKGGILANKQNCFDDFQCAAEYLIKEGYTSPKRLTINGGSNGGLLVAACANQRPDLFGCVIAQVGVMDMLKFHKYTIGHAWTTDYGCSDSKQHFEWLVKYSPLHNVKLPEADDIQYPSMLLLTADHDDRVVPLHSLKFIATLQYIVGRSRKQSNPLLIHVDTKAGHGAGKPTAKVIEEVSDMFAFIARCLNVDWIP
# Method: POP (EC 3.4.21.26) was dissolved in phosphate-buffered saline (PBS; 0.01 M Na/K phosphate buffer, pH 7.4, containing 137 mM NaCl and 2.7 mM KCl); the specific activity of the enzyme was 0.2 U/mL. The assay was performed in standard polystyrene 96-well microplates with a flat and clear bottom. Stock solutions of tested compounds were prepared in DMSO (10 mM). Dilutions (10^−3 to 10^−7 M) were prepared from the stock solution with deionized H2O; the control was performed with the same DMSO concentration. POP substrate, (Z)-Gly-Pro-p-nitroanilide, was dissolved in 50% 1,4-dioxane (5 mM). For each reaction, PBS (170 μL), tested compound (5 μL), and POP (5 μL) were incubated for 5 min at 37 °C. Then, substrate (20 μL) was added, and the microplate was incubated for 30 min at 37 °C. The formation of p-nitroanilide, directly proportional to the POP activity, was measured spectrophotometrically at 405 nm using a microplate ELISA reader (multimode microplate reader Synergy 2, BioTek Instruments, Winooski, VT, USA). […] All calculations were performed using GraphPad Prism software version 7.03 for Windows (GraphPad Software Inc., San Diego, California, USA).
# T1 sequence (P22303 other isoform, or with tags, fused parts or gaps): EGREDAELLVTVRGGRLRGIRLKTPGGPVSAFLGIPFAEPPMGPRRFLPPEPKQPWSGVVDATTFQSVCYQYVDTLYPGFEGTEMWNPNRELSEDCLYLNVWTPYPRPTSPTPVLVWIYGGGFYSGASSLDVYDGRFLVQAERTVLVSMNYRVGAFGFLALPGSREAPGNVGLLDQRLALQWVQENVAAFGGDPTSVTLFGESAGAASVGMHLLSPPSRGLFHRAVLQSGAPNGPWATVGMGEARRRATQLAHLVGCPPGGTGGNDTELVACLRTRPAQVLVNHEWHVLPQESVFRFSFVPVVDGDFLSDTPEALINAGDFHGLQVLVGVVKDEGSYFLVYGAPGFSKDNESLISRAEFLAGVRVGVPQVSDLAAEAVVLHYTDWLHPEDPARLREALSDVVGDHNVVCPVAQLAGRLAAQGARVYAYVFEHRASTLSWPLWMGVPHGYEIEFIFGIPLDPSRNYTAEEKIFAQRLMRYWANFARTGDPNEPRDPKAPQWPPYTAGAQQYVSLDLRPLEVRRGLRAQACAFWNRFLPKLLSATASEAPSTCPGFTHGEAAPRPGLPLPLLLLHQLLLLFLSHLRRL
Compound,IC50 (hAChE),inhibition at 100 µM (hAChE),IC50 (hBuChE),inhibition at 100 µM (hBuChE),IC50 (POP (EC 3.4.21.26)),SI for hBuChE (hBuChE),SI for hBuChE (hBuChE; listed as carltonine A (13)),SI for hBuChE (hBuChE; listed as carltonine B (14))
"COc1ccc2c3c1O[C@H]1C=CC=C[C@@]31CCN(C)C2 [3,4-Anhydrogalanthamine (3), 3,4-anhydrogalanthamine]",> 100 µM,4%,> 100 µM,28 ± 1%,–,–,–,–
"COc1cc(CN(C)CCc2ccc(O)cc2)c(-c2cccc3c2N(C)CC3)cc1OC [Carltonine A (13), carltonine A]",> 100 µM,2%,0.91 ± 0.02 µM,98 ± 1%,143 ± 12 µM,>110,higher than 100,–
"CN(CCc1ccc(O)cc1)Cc1cc2c(cc1-c1cccc3c1N(C)CC3)OCO2 [Carltonine B (14), carltonine B]",> 100 µM,40 ± 1%,0.031 ± 0.001 µM,99 ± 1%,–,>3226,–,higher than 100
"COc1cc(CN(CCc2ccc(O)cc2)Cc2cc(OC)c(OC)cc2-c2cccc3c2N(C)CC3)c(-c2cccc3c2N(C)CC3)cc1OC [Carltonine C (15), carltonine C]",> 100 µM,9%,14.8 ± 1.1 µM,78 ± 1%,–,>7,–,–
"COc1cc(C=O)c(-c2cccc3c2N(C)CC3)cc1OC [Lycosinine B (1), lycosinine B]",> 100 µM,28 ± 1%,> 100 µM,42 ± 1%,258 ± 14 µM,–,–,–
"c1ccc2c(c1)ncc1cc3c(cc12)OCO3 [Trispheridine (2), trisphaeridine]",> 100 µM,6 ± 1%,> 100 µM,13 ± 1%,–,–,–,–

# Reference: article PMC7277649, “Amaryllidaceae Alkaloids of Belladine-Type from Narcissus pseudonarcissus cv. Carlton as New Selective Inhibitors of Butyrylcholinesterase” (Biomolecules, 2020)
